For test [1], the target named is T1, PDE2A (NM002599) (Homo sapiens, UniProt O00408).
T1 construct: made in house; host or cells: baculovirus / SF21 insect cells
In words: Inhibition of recombinant PDE2A (expressed in baculovirus/SF21-cells). It is filed as biochemical. As to conditions: recombinant PDE2A, 0.5 μM [3H]-cAMP, 1000 nM cGMP, 37° C., 30 minutes, SPA; read-out: PDE2A IC50. Here is the method: PDE2A (NM002599) was cloned and the gene was inserted in the baculovirus and the enzyme-protein expressed in SF21-cells. The enzyme was isolated from these cells by harvesting the cells by an centrifugation at 200 g to collect the cells. The cells were resuspended in 50 mM Tris-HCl/5 mM MgCl2 buffer (pH=7.4) (Sigma, Deisenhofen, Germany; Merck, Darmstadt, Germany) and lysed by a sonication of the cells (three times for 15 seconds, Labsonic U, Fa. Braun, Degersheim, Switzerland, level “high”). The membrane fraction of PDE2A was obtained by a centrifugation at 48 000 g for 1 h, resuspended in buffer and stored at −70° C.
PDE2A activity was determined in a one step procedure in microtiterplates. The reaction mixture of 100 μl contained 50 mM Tris-HCl/5 mM MgCl2 buffer (pH=7.4) (Sigma, Deisenhofen, Germany; Merck, Darmstadt, Germany), 0.5 μM [3H]-cAMP (Amersham, Buckinghamshire, UK), 1000 nM cGMP and the enzyme. Non-specific enzyme activity was tested in the absence of cGMP. The reaction was initiated by addition of the substrate solution and was carried out at 37° C. for 30 minutes. Enzymatic activity then was stopped by addition of 25 μl SPA-beads (Amersham-Pharmacia). One hour later the mixture was measured in a liquid scintillation counter for microtiterplates (Microbeta Trilux). For pipetting of the incubation mixture the robot Biomek (Fa. Beckman) was routinely used.
The optimal amount of enzyme in the assay has been determined and optimised for each enzyme preparation separately before using the enzyme in compound testing. For determination of IC50 values the Hill-plot, 2-parameter-model, was used.

Test [2] addresses T2, PDE10A1 (AB 020593) (Homo sapiens, UniProt Q9Y233).
T2 construct: made in house; host or cells: baculovirus / SF21 insect cells (gene synthesized by Entelechon GmbH)
In words: Inhibition of recombinant PDE10A (baculovirus/SF21 system). It is filed as biochemical. Particulars: recombinant cytosolic PDE10A, 0.1 μM [3H]-cAMP, 37° C., 30 minutes, SPA; read-out: PDE10A IC50. Here is the method:
The DNA of PDE10A1 (AB 020593, 2340 bp) was synthesized and cloned into the vector pCR4.TOPO (Entelechon GmbH, Regensburg, Germany). The gene was than inserted into a baculovirus vector, ligated with the baculovirus DNA. The enzyme-protein was expressed in SF21-cells. The enzyme was isolated from these cells by harvesting the cells by an centrifugation at 500 g to collect the cells.
The cells were resuspended in 50 mM Tris-HCl/1 mM EDTA/250 mM Sucrose buffer, pH=7.4 (Sigma, Deisenhofen, Germany; Merck, Darmstadt, Germany) and lysed by sonification of the cells (three times for 15 seconds, Labsonic U, Fa. Braun, Degersheim, Switzerland, level “high”). The cytosolic PDE10A was obtained by a centrifugation at 48,000 g for 1 h in the supernatant and stored at −70° C.
PDE activity was determined in a one step procedure in microtiter plates. The reaction mixture of 100 μl contained 50 mM Tris-HCl/5 mM MgCl2 buffer (pH=7.4, Sigma, Deisenhofen, Germany; Merck, Darmstadt, Germany) 0.1 μM [3H]-cAMP (Amersham, Buckinghamshire, UK) and the enzyme. Non-specific enzyme activity was determined without the enzyme. The reaction was initiated by addition of the substrate solution and was carried out at 37° C. for 30 minutes. Enzymatic activity then was stopped by addition of 25 μl Ysi-SPA-beads (Amersham-Pharmacia). One h later the mixture was measured in a liquid scintillation counter for microtiter plates (Microbeta Trilux). The Biomek 2000 (Beckman) was used routinely for pipetting of the incubation mixture. The optimal amount of enzyme in the assay has been determined and optimized for each enzyme preparation separately before using the enzyme in compound testing. For determination of IC50 values the Hill-plot, 2-parameter-model, was used.

In patent US20100120762A1, “Triazine derivatives as inhibitors of phosphodiesterases” (WYETH, priority 2008, published 2010) one finds IC50 data, which are given here for 26 molecules.

T1 sequence (O00408 whole entry): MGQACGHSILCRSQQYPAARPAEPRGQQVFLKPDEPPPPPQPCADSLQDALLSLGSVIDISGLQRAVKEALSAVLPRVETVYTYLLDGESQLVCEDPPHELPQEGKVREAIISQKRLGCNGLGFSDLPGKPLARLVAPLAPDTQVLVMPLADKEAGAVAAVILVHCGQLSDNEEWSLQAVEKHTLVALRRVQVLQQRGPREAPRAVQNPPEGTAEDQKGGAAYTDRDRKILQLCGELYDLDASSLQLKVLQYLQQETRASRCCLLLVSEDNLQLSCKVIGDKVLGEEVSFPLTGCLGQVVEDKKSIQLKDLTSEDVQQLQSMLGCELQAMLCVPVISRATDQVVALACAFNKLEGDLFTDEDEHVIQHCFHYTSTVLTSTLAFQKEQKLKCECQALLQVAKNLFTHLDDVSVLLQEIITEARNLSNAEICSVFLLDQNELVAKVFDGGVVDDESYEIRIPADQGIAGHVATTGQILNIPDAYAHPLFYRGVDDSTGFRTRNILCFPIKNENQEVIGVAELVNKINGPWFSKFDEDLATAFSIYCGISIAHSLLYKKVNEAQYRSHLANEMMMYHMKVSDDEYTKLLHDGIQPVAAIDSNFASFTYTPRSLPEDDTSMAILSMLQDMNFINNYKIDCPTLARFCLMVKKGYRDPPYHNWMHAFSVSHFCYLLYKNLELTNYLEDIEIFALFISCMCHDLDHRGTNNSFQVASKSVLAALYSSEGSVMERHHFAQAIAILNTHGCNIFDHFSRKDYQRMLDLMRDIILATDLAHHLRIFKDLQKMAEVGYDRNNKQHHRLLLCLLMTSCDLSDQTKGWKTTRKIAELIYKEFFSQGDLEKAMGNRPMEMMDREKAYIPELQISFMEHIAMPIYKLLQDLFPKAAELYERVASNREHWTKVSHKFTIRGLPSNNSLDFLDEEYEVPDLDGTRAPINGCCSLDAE
T2 sequence (Q9Y233 other isoform, or with tags, fused parts or gaps): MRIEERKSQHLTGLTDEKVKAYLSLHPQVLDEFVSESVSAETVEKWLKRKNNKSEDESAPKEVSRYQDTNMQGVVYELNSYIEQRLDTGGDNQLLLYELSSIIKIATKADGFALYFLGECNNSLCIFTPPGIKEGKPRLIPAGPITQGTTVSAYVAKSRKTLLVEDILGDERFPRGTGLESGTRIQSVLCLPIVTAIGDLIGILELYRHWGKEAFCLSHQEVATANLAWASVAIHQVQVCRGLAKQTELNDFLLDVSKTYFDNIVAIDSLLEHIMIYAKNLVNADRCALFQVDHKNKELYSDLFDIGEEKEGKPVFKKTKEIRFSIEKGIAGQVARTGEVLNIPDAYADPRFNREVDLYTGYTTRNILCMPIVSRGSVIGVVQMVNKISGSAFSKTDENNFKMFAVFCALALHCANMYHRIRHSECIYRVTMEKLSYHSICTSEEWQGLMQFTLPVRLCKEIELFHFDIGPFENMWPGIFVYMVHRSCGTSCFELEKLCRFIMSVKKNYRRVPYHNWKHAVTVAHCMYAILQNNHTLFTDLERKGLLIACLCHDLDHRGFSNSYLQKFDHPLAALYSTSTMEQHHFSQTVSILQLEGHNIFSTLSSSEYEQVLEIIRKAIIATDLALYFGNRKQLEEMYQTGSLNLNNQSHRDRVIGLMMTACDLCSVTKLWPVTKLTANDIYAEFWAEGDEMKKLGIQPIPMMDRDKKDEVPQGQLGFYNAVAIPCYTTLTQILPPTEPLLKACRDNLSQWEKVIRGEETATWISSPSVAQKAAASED

As a reminder, the IC50 is the concentration that gives 50% inhibition. For the molecule `COc1ccnc2c1nnc1c(C)nc(-c3cccnc3C)n12` [Example 116, 4-methoxy-7-methyl-9-(2-methylpyridin-3-yl)imidazo[5,1-c]pyrido[2,3-e][1,2,4]triazine], the IC50 came out at 1150 nM in test [1] and 15.1 nM in test [2].
Taken in the same sequence, the figures for `COc1ccc2nnc3c(C)nc(-c4ccccc4OC)n3c2n1` [Example 70, 2-methoxy-9-(2-methoxyphenyl)-7-methylimidazo[5,1-c]pyrido[2,3-e][1,2,4]triazine] were 108 nM and 83.4 nM.
The corresponding values for `COc1ccc2nnc3c(C)nc(-c4cc(OC(F)(F)F)ccc4Cl)n3c2n1` [Example 76, 9-(2-chloro-5-(trifluoromethoxy)phenyl)-2-methoxy-7-methylimidazo[5,1-c]pyrido[2,3-e][1,2,4]triazine] are 10.6 nM and 149 nM.
The corresponding values for `COc1ccc2nnc3c(C)nc(-c4cc(Cl)ccc4C)n3c2n1` [Example 60, 9-(5-chloro-2-methylphenyl)-2-methoxy-7-methylimidazo[5,1-c]pyrido[2,3-e][1,2,4]triazine] are 8 nM and 106 nM.
As to `COc1ccc2nnc3c(C)nc(-c4ccncc4C)n3c2n1` [Example 64, 2-methoxy-7-methyl-9-(3-methylpyridin-4-yl)imidazo[5,1-c]pyrido[2,3-e][1,2,4]triazine], the half-maximal inhibitory concentration (IC50) was 56.2 nM in test [1] and 85.6 nM in test [2].
In the case of `COc1ccc2nnc3c(C)nc(-c4cccc(C(C)C)c4)n3c2n1` [Example 15, 2-methoxy-7-methyl-9-[3-(1-methylethyl)phenyl]imidazo[5,1-c]pyrido[2,3-e][1,2,4]triazine], the IC50 in test [1] was 374 nM; in test [2] it was greater than 1000 nM.
Taken in the same sequence, the figures for `CCc1cccc(-c2nc(C)c3nnc4ccc(OC)nc4n23)c1` [Example 17, 9-(3-ethylphenyl)-2-methoxy-7-methylimidazo[5,1-c]pyrido[2,3-e][1,2,4]triazine] were 80.5 nM and 162 nM.
For the molecule `COc1ccc2nnc3c(C)nc(-c4c(Cl)cccc4OC)n3c2n1` [Example 86, 9-(2-chloro-6-methoxyphenyl)-2-methoxy-7-methylimidazo[5,1-c]pyrido[2,3-e][1,2,4]triazine], the IC50 in test [1] worked out at 12 nM; in test [2], 54.5 nM.
As to `COc1ccc2nnc3c(C)nc(-c4cccc(C)c4F)n3c2n1` [Example 63, 9-(2-fluoro-3-methylphenyl)-2-methoxy-7-methylimidazo[5,1-c]pyrido[2,3-e][1,2,4]triazine], the values for the IC50 in test [1] and in test [2] were 55.2 nM and 86.8 nM, respectively.
Taken in the same sequence, the figures for `COc1ccnc2c1nnc1c(C)nc(-c3cc(Cl)ccc3Cl)n12` [Example 113, 9-(2,5-dichlorophenyl)-4-methoxy-7-methylimidazo[5,1-c]pyrido[2,3-e][1,2,4]triazine] were 171 nM and 3.01 nM.
Taken in the same sequence, the figures for `COc1ccc2nnc3c(C)nc(-c4cnn(C)c4)n3c2n1` [Example 79, 2-methoxy-7-methyl-9-(1-methyl-1H-pyrazol-4-yl)imidazo[5,1-c]pyrido[2,3-e][1,2,4]triazine] were 523 nM and 362 nM.
Taken in the same sequence, the figures for `COc1ccc2nnc3c(C)nc(-c4ccncc4Cl)n3c2n1` [Example 45, 9-(3-chloropyridin-4-yl)-2-methoxy-7-methylimidazo[5,1-c]pyrido[2,3-e][1,2,4]triazine] were 31.7 nM and 36.9 nM.
Take `COc1ccc2nnc3c(C)nc(-c4cc(F)cc(C(N)=O)c4)n3c2n1` [Example 82, 3-fluoro-5-(2-methoxy-7-methylimidazo[5,1-c]pyrido[2,3-e][1,2,4]triazin-9-yl)benzamide]: the IC50 in test [1] came out at 279 nM; in test [2], 141 nM.
Consider `COc1ccc2nnc3c(C)nc(-c4cccc(OC)c4F)n3c2n1` [Example 18, 9-(2-fluoro-3-methoxyphenyl)-2-methoxy-7-methylimidazo[5,1-c]pyrido[2,3-e][1,2,4]triazine], for which the IC50 in test [1] is 109 nM; in test [2], 160 nM.
Taken in the same sequence, the figures for “1-(2-Chloro-3-methyl-3H-imidazol-4-yl)-8-methoxy-3-methyl-imidazo[5,1-c]pyrido[2,3-e][1,2,4]triazine [Example 107]” were 358 nM and 600 nM.
The corresponding values for `COc1ccc2nnc3c(C)nc(-c4c(C)nn(C)c4C)n3c2n1` [Example 65, 2-methoxy-7-methyl-9-(1,3,5-trimethyl-1H-pyrazol-4-yl)imidazo[5,1-c]pyrido[2,3-e][1,2,4]triazine] are 22.9 nM and 120 nM.
The corresponding values for `COc1ccc2nnc3c(C)nc(-c4cccc(OCC(F)(F)F)c4)n3c2n1` [Example 30, 2-methoxy-7-methyl-9-[3-(2,2,2-trifluoroethoxy)phenyl]imidazo[5,1-c]pyrido[2,3-e][1,2,4]triazine] are 15.6 nM and 339 nM.
`COc1ccc2nnc3c(C)nc(-c4cc(C(C)=O)ccc4Cl)n3c2n1` [Example 49, 1-[4-chloro-3-(2-methoxy-7-methylimidazo[5,1-c]pyrido[2,3-e][1,2,4]triazin-9-yl)phenyl]ethanone]: the IC50 was 27.5 nM in test [1] and 403 nM in test [2].
On to `COc1ccc2nnc3c(C)nc(-c4ccccc4C)n3c2n1` [Example 101, 2-methoxy-7-methyl-9-o-tolylimidazo[5,1-c]pyrido[2,3-e][1,2,4]triazine], for which the values for the IC50 in test [1] and in test [2] were 15.8 nM and 46.1 nM, respectively.
Taken in the same sequence, the figures for `COc1ccc2nnc3c(C)nc(-c4cc(F)ccc4C)n3c2n1` [Example 73, 9-(5-fluoro-2-methylphenyl)-2-methoxy-7-methylimidazo[5,1-c]pyrido[2,3-e][1,2,4]triazine] were 24.3 nM and 38 nM.
Taken in the same sequence, the figures for `Cc1nc(-c2ccccc2Cl)n2c1nnc1ccc(O)nc12` [Example 117, 1-(2-Chloro-phenyl)-8-hydroxy-3-methyl-imidazo[5,1-c]pyrido[2,3-e][1,2,4]triazine] were 3.25 nM and 27.7 nM.
Taken in the same sequence, the figures for `COc1ccc2nnc3c(C)nc(-c4ccc(C(N)=O)c(Cl)c4)n3c2n1` [Example 84, 2-chloro-4-(2-methoxy-7-methylimidazo[5,1-c]pyrido[2,3-e][1,2,4]triazin-9-yl)benzamide] were 423 nM and 158 nM.
As for `COc1ccc2nnc3c(C)nc(-c4ccc(F)c(OC)c4)n3c2n1` [Example 23, 9-(4-fluoro-3-methoxyphenyl)-2-methoxy-7-methylimidazo[5,1-c]pyrido[2,3-e][1,2,4]triazine], the IC50 stood at 26.4 nM in test [1] and 34.9 nM in test [2].
In the case of `COc1cc(F)cc(-c2nc(C)c3nnc4ccc(OC)nc4n23)c1` [Example 21, 9-(3-fluoro-5-methoxyphenyl)-2-methoxy-7-methylimidazo[5,1-c]pyrido[2,3-e][1,2,4]triazine], the IC50 in test [1] came to 37.8 nM; in test [2], 50.4 nM.
The corresponding values for `COc1ccc2nnc3c(C)nc(-c4cc(Cl)ccc4OC)n3c2n1` [Example 98, 9-(5-chloro-2-methoxyphenyl)-2-methoxy-7-methylimidazo[5,1-c]pyrido[2,3-e][1,2,4]triazine] are 62.9 nM and 86.9 nM.
Taken in the same sequence, the figures for `COc1ccc2nnc3c(C)nc(-c4cccc(Cl)c4C)n3c2n1` [Example 94, 9-(3-chloro-2-methylphenyl)-2-methoxy-7-methylimidazo[5,1-c]pyrido[2,3-e][1,2,4]triazine] were 89.5 nM and 69.2 nM.
